Reference: patent US9175030B2, “Derivatives of avicin D and methods of making and using thereof” (priority 2012, dated 2015)

What was measured:
NF-κB = assay: Inhibition of NF-κB activation (FIG. 2A); format: cell-based; details: compared with dexamethasone
HS27 = assay: MTT growth inhibition, HS27; format: cell-based; details: HS27 human foreskin fibroblast cells, 72 hrs
Description: (§1) The growth inhibitory effects of avicin D and oxetane derivative were measured using the MTT [3-(4,5-dimethylthiazol-2-yl)-2,5-diphenyl tetrazolium bromide] reduction assay as described in Haridas et al. (2001). Cells were cultured with varying concentrations of avicin D or oxetane in 96-well plates for 72 hrs at 37° C. At the end of 72 hrs, cells were stained with MTT for 2 hrs and then incubated with lysis buffer (20% SDS in 50% N,N-dimethylformamide) for another 6 hrs. Optical density at 570 nm was used as a measure of cell viability.
(§2) The cell lines 769P, A498, CAKI-1, and CAKI-2 are derived from primary human renal-cell cancers (RCC). A549 is a human lung adenocarcinoma epithelial cell line. B16F10 is a mouse melanoma cell line. BT474, BT 474 M1, BT549, MCF7, […], and ZR751 are breast cancer cell lines. CCRF-CEM, Jurkat, and MOLT4 are leukemia cell lines. HELA is cell line derived from cervical caner. HepG2 is a human hepatocellular liver carcinoma cell line. JeKo-1 is a mantle cell lymphoma (MCL) cell line. LnCAP is a cell line was established from a metastatic lesion of human prostatic adenocarcinoma. MM.1 and RPMI-8226 are human multiple myeloma cell lines. OVCAR3 and SKOV3 are ovarian cancer cell lines. Panc-1 is a pancreatic cancer cell line. PC3 is a prostate cancer cell line. Raji is a Burkitt's lymphoma cell line. RL is a non-Hodgkin's lymphoma cell line. […]

IL-6 = IL-6 expression, constitutive and TNF-induced (FIG. 2B); format: cell-based
BT474 M1 = assay: MTT growth inhibition, BT474 M1; format: cell-based; details: BT474 M1 cells, 72 hrs
Description: as §1, §2

GM0131 = assay: MTT growth inhibition, GM0131; format: cell-based; details: GM0131 wild type human fibroblast cells, 72 hrs
Description: as §1, §2

A549 = assay: MTT growth inhibition, A549; format: cell-based, human; details: A549 cells, 72 hrs
Description: as §1, §2

MM1 = assay: MTT growth inhibition, MM1; format: cell-based, human; details: MM1 cells, 72 hrs
Description: as §1, §2

RPMI 8226 = assay: MTT growth inhibition, RPMI 8226; format: cell-based, human; details: RPMI 8226 cells, 72 hrs
Description: as §1, §2

Jurkat = assay: MTT growth inhibition, Jurkat; format: cell-based, human; details: Jurkat cells, 72 hrs (Table 5)
Description: as §1, §2

[1] = test system: Jurkat (human T-cell leukemia) cells; assay: Reduction in cell viability, Jurkat cells (Table 6); format: cell-based; details: 50% reduction in cell viability
Text: The IC50 values indicate the concentrations of avicin D/compound 8 required to induce a 50% reduction in call viability. These studies were done in Jurkat (human T-cell leukemia) cells and have been described previously in Haridas et al., 2001, which is incorporated herein by reference.

MINO = assay: MTT growth inhibition, MINO; format: cell-based; details: MINO cells, 72 hrs
Description: as §1, §2

WSU-DLCL2 = assay: MTT growth inhibition, WSU-DLCL2; format: cell-based, human; details: WSU-DLCL2 cells, 72 hrs
Description: as §1, §2

CAKI-1 = assay: MTT growth inhibition, CAKI-1; format: cell-based, human; details: CAKI-1 cells, 72 hrs
Description: as §1, §2

BT549 = assay: MTT growth inhibition, BT549; format: cell-based; details: BT549 cells, 72 hrs
Description: as §1, §2

B16F10 = assay: MTT growth inhibition, B16F10; format: cell-based, mouse; details: B16F10 cells, 72 hrs
Description: as §1, §2

adiponectin = details: adipocytes; cited from earlier work
SKOV3 = assay: MTT growth inhibition, SKOV3; format: cell-based; details: SKOV3 cells, 72 hrs
Description: as §1, §2

human preadipocytes = details: cited from earlier work
RL = assay: MTT growth inhibition, RL; format: cell-based; details: RL cells, 72 hrs
Description: as §1, §2

chemotaxis = assay: Inhibition of chemotaxis; format: cell-based; details: preliminary data
CAKI-2 = assay: MTT growth inhibition, CAKI-2; format: cell-based, human; details: CAKI-2 cells, 72 hrs
Description: as §1, §2

LnCAP = assay: MTT growth inhibition, LnCAP; format: cell-based, human; details: LnCAP cells, 72 hrs
Description: as §1, §2

ZR751 = assay: MTT growth inhibition, ZR751; format: cell-based; details: ZR751 cells, 72 hrs
Description: as §1, §2

JEKO-1 = assay: MTT growth inhibition, JEKO-1; format: cell-based; details: JEKO-1 cells, 72 hrs
Description: as §1, §2

[2] = target: glucocorticoid receptor (GR) (Homo sapiens, UniProt P04150); assay: GR Ser-211 phosphorylation (FIG. 4); format: cell-based; details: up to 16 hours
Sequence of glucocorticoid receptor (GR) (P04150 whole entry): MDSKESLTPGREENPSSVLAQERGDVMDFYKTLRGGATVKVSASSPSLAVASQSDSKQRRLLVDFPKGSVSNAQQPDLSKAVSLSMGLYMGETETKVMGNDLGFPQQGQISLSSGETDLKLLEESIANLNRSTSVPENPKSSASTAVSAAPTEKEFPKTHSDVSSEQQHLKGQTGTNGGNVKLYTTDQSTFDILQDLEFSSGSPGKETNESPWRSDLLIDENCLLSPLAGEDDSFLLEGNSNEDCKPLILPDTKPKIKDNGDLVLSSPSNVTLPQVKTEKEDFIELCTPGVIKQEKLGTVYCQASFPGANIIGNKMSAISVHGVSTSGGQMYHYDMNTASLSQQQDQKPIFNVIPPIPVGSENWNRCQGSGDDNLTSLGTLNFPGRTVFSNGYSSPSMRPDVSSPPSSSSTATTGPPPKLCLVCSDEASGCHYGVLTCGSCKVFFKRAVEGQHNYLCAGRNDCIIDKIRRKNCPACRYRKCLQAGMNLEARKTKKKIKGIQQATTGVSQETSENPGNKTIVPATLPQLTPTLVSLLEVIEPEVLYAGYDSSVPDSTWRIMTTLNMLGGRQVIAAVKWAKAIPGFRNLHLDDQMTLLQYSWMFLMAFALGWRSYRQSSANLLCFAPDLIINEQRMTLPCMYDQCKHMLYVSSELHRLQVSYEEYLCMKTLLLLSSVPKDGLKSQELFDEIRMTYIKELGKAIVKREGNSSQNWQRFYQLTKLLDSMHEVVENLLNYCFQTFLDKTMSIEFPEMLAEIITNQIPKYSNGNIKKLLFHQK

[3] = test system: PKA-mediated CREB activity; details: cited from earlier work
Nrf2 = Nrf2 activation, ARE-driven luciferase in Hep G2 cells; format: cell-based, human; details: Hep G2 cells transfected with hARE-luc, luciferase activity
Description: Activation of Nrf2 was assessed by measuring the antioxidant response element (ARE)-mediated gene expression as described previously by Haridas et al., 2004, which is incorporated herein by reference. Briefly, ARE is a cis-acting regulatory sequence identified in the promoter region of several genes encoding phase 2 detoxification enzymes, that binds to Nrf2. Hep G2 (human hepatocarcinoma) cells were transfected with a human ARE-driven luciferase (luc) containing plasmid, hARE-luc. Following exposure to avicin D/compound 8, the luciferase activity induced in these cells was measured using a dual-luciferase assay kit (Promega) according to the manufacturer's protocol.

HepG2 = assay: MTT growth inhibition, HepG2; format: cell-based, human; details: HepG2 cells, 72 hrs
Description: as §1, §2

IC50 (BT474 M1): 1100 nM
IC50 (A549): 6900 nM
IC50 (MM1): 100 nM
IC50 (Jurkat): 170 nM
IC50 [1]: 180 nM
IC50 (BT549): 4800 nM
IC50 (B16F10): 660 nM
IC50 (SKOV3): 1000 nM
IC50 (LnCAP): 470 nM
IC50 (HepG2): 440 nM
SMILES: C=C[C@](C)(O)CC/C=C(\CO)C(=O)O[C@H]1[C@H](O)[C@@H](O)[C@H](O[C@@](C)(C=C)CC/C=C(\CO)C(=O)O[C@H]2C[C@]3(C(=O)O[C@@H]4O[C@H](CO)[C@@H](O)[C@H](O)[C@H]4O[C@@H]4O[C@@H](C)[C@H](O[C@@H]5O[C@@H](CO)[C@H](O)[C@H]5O)[C@@H](O[C@@H]5O[C@H](CO)[C@@H](O)[C@H](O)[C@H]5O)[C@H]4O)[C@H](O)C[C@]4(C)C(=CC[C@@H]5[C@@]6(C)CC[C@H](O[C@@H]7O[C@H](CO[C@@H]8O[C@H](C)[C@H](O)[C@H](O)[C@H]8O[C@@H]8OC[C@@H](O)[C@H](O)[C@H]8O)[C@@H](O)[C@H](O)[C@H]7NC(C)=O)C(C)(C)[C@@H]6CC[C@]54C)[C@@H]3CC2(C)C)O[C@@H]1C [Avicin D]
activation of NF-κB (NF-κB): inhibits activation of NF-κB
IC50 (HS27): 6100 nM
expression of IL-6 (IL-6): suppresses the expression of both constituitive and TNF-induced IL-6
IC50 (GM0131): 30100 nM
IC50 (RPMI 8226): 300 nM
IC50 (MINO): 420 nM
IC50 (WSU-DLCL2): 520 nM
IC50 (CAKI-1): 1120 nM
expression and secretion of adiponectin (adiponectin): increased the expression and secretion of adiponectin
differentiation of preadipocytes to mature adipocytes (human preadipocytes): inhibited the differentiation of human preadipocytes to mature adipocytes
intracellular triglyceride levels (human preadipocytes): reduced intracellular triglyceride levels
IC50 (RL): 310 nM
inhibition of chemotaxis (chemotaxis): effective at inhibiting chemotaxis at picomolar and nanomolar concentrations
IC50 (CAKI-2): 2060 nM
IC50 (ZR751): 670 nM
IC50 (JEKO-1): 420 nM
phosphorylation of Ser-211 [2]: does not enhance phosphorylation of Ser-211 even after 16 hours
PKA-mediated CREB activity [3]: inhibited PKA-mediated CREB activity
Fold Nrf2 activation (Nrf2): 2.10
